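Growth conditions: 96-well plates. Treatment: test compound, 48 hours, 5 concentrations. Analysis: linear interpolation between bracketing concentrations; unreached endpoints set to highest concentration. GI50 = concentration required for 50% inhibition of growth.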 Calls of active or inactive are those of the source. Cut-off read from the data, not from the text of the source: active = GI50 up to about 1.1 µM and inactive = higher.
What was measured:
Experiment in all cases: NCI-60 cell line screen, 48 h
OVCAR-4 = test system: OVCAR-4
MCF7 = test system: MCF7
NCI/ADR-RES = test system: NCI/ADR-RES
UACC-62 = test system: UACC-62
MDA-N = test system: MDA-N
MDA-MB-231 = test system: MDA-MB-231
SF-295 = test system: SF-295
SK-OV-3 = test system: SK-OV-3
T47D = test system: T47D
BT-549 = test system: BT-549
MDA-MB-435 = test system: MDA-MB-435
DU-145 = test system: DU-145
PC-3 = test system: PC-3
SF-268 = test system: SF-268
NCI-H522 = test system: NCI-H522
Malme-3M = test system: Malme-3M
A498 = test system: A498
Hs-578T = test system: Hs-578T
DMS-114 = test system: DMS-114
LXFL 529 = test system: LXFL 529

Measured: GI50

CC/C=C(\C(=C/CC)[N+](=O)[O-])[N+](=O)[O-]
inactive: OVCAR-4 22.8 µM | MCF7 16.7 µM | NCI/ADR-RES 20.7 µM | UACC-62 18 µM | MDA-N 22.8 µM | MDA-MB-231 21 µM | SF-295 > 100 µM | SK-OV-3 > 100 µM | T47D 28.4 µM | BT-549 18.1 µM | MDA-MB-435 16.8 µM | DU-145 21.3 µM | PC-3 33.1 µM

O=c1cnn(C/C=C\CO)c(=O)[nH]1
inactive: MCF7 > 100 µM | NCI/ADR-RES > 100 µM | MDA-N > 100 µM | SF-268 > 100 µM | MDA-MB-231 > 100 µM | NCI-H522 > 100 µM | Malme-3M > 100 µM | A498 > 100 µM | T47D > 100 µM | Hs-578T > 100 µM | MDA-MB-435 > 100 µM | DU-145 > 100 µM | PC-3 > 100 µM

NCCCCNCCCNC(=O)c1nc(-c2nc(CCN)sc2Cl)sc1Cl
inactive: OVCAR-4 29.9 µM | UACC-62 > 100 µM | SF-268 6.98 µM | NCI-H522 21 µM | SF-295 59.8 µM | SK-OV-3 > 100 µM | Malme-3M 58.6 µM | A498 > 100 µM | DMS-114 18.8 µM | LXFL 529 3.46 µM

CSCCC(NC(=O)OCc1ccccc1)NC(=O)OCc1ccccc1
inactive: OVCAR-4 > 100 µM | NCI/ADR-RES > 100 µM | MDA-N > 100 µM | MDA-MB-231 > 100 µM | NCI-H522 > 100 µM | SF-295 > 100 µM | SK-OV-3 > 100 µM | T47D 59.8 µM | Hs-578T > 100 µM | MDA-MB-435 > 100 µM | DU-145 > 100 µM | PC-3 > 100 µM

CCCc1[nH]c(SCCCCCCCCSc2nc(-c3ccc(F)cc3)c(CCC)[nH]2)nc1-c1ccc(F)cc1
inactive: OVCAR-4 10.3 µM | UACC-62 5.58 µM | SF-268 3.33 µM | DMS-114 3.94 µM | LXFL 529 7.46 µM

COc1cc(C=O)cc(/C=N/c2ccc(S(N)(=O)=O)cc2)c1O
inactive: OVCAR-4 > 100 µM | MCF7 > 100 µM | NCI/ADR-RES 10.5 µM | UACC-62 23.8 µM | MDA-N 5.6 µM | SF-268 4.13 µM | MDA-MB-231 20.4 µM | NCI-H522 21.2 µM | SF-295 3.64 µM | SK-OV-3 2.9 µM | Malme-3M 2.88 µM | A498 23.8 µM | T47D 14.3 µM | Hs-578T 2.82 µM | BT-549 6.73 µM | MDA-MB-435 9.2 µM | DU-145 40.1 µM | PC-3 2.96 µM

CCCCCCOP(=O)(OCCCCCC)C(NC(=O)OCC)(C(F)(F)F)C(F)(F)F
inactive: MCF7 37.2 µM | NCI/ADR-RES 28.8 µM | UACC-62 41.6 µM | MDA-N 36 µM | SF-268 40.6 µM | MDA-MB-231 24.3 µM | NCI-H522 28.1 µM | SF-295 30.3 µM | SK-OV-3 29 µM | Malme-3M 34.4 µM | A498 > 100 µM | T47D 39.5 µM | Hs-578T 51.5 µM | BT-549 22.5 µM | MDA-MB-435 36.6 µM | DU-145 93.1 µM | PC-3 33.3 µM

Reference: ChEMBL document CHEMBL1201862, “PubChem BioAssay data set” (2004)
